Results on 110 compounds are retold here after a melting point compilation (Tetko et al.).

The melting point is the temperature of the solid-liquid transition. As for `CN(C)C1=C(C=C(c2ccc(F)cc2)c2ccc(F)cc2)C(=O)N(c2ccccc2)C1=O`, the melting point came to 157 °C.
In turn, `CC(=O)/C(=N\Nc1ccc([N+](=O)[O-])cc1)C(=O)C(F)(F)F` had a melting point of 140 °C.
In the case of `O=C(CCCN1CCC(O)(c2ccc(Br)cc2)CC1)c1ccc(F)cc1`, the melting point stood at 155 °C.
Next, `O=C1c2ccccc2C(=O)c2c1ccc(O)c2O`: 287 to 289 °C; `C#CCCCC#C`: -85 °C; `CCN1C(=O)OC(C)(C)C1=O`: 76.5 °C.
Turning to `CCc1cccc([N+](=O)[O-])c1`, the melting point was -37.9 °C.
Compound `N=C1c2ccccc2C(=O)N1c1n[nH]c2ncccc12` came in with a melting point of 252 to 255 °C.
For `Cc1nn(C)c2ncnc(N)c12`, the melting point turned out to be 190 °C.
`CCNc1nc(Cl)nc(NC(C)(C)C)n1`: the melting point is 178 °C.
`CC1C(=O)C23C4CC5C(C)(C)CCC(O)C56COC(CC1C2OC(C)(C)O4)C63` (stereo not given) had a melting point of 204 °C.
As to `Cc1ccc(CC#N)cc1`, the melting point stood at 18 °C.
As to `O=C(O)c1ccnc(N2CCOCC2)c1`, the melting point was determined as 180 °C.
The result for `O=C(O)CNc1ccccc1` reads 128 °C; that for `Nn1c(Cc2ccc(Cl)cc2)n[nH]c1=O`, 181 °C; that for `O=Cc1ccc(-c2cccs2)s1`, 57 to 58 °C.
In turn, `O=C(CCl)Nc1ccc(Cl)cc1Cl` had a melting point of 105 to 108 °C.
`CCCCCC#CC(=O)O` displayed a melting point of 4 °C.
The compound `NC(=O)C12CCN(CC1)CC2` gave a melting point of 235 to 237 °C.
Next, `O=C(Cl)c1ccc(I)cc1`: 63 °C; `CC(C)C(C(=O)O)c1ccccc1` (stereo not given): 60 °C.
With `COc1cc(CC(C)N)c(OC)cc1C` (stereo not given), the melting point was 60.8 °C.
`Cc1cccc2cc3ccc4ccccc4c3cc12` registered a melting point of 118 °C.
In turn, `Nc1ccc(F)nc1` came in with a melting point of 91 °C.
The result for `C#CC(O)(c1ccccc1)c1ccccc1` reads 47 to 48 °C; that for `CCCc1ssc(=S)c1C`, 49 °C; that for `Nc1ccc(N=Nc2ccccc2)cc1`, 127 °C.
Next, `Oc1cc(Cl)cnc1O`: 295 °C; `CCOC(=O)CCCCCCCC(=O)OCC`: -18.5 °C.
`O=C(O)c1cc([N+](=O)[O-])ccc1Br` displayed a melting point of 180 °C.
Next, `O=[N+]([O-])c1ccc(Br)s1`: 44 °C; `CCCCCCCCC1CCCCC1`: -20 °C.
`CC1(C)C(C=C(Br)Br)C1C(=O)OC(C#N)c1cccc(Oc2ccccc2)c1` (stereo not given) yielded a melting point of 100 °C.
The compound `CC(C)(C)OC(=O)N[C@@H](CCC(=O)O)C(=O)O` came in with a melting point of 110 to 113 °C.
The result for `O=C(O)c1cnn(-c2ccc([N+](=O)[O-])cc2[N+](=O)[O-])c1` reads 260 to 262 °C; that for `Cc1c(CCl)cccc1[N+](=O)[O-]`, 42 to 47 °C; that for `O=C(O)Cc1ccc(CO)cc1`, 133 °C.
The result for `Nc1cn[nH]c1` reads 81 °C.
Compound `Cc1ccc2cc3ccccc3cc2c1` yielded a melting point of 209 °C.
Compound `O=C1CCc2cc(Cl)ccc21` yielded a melting point of 94 °C.
In turn, `NNC(=O)COc1ccc(OC(F)(F)F)cc1` displayed a melting point of 130 to 133 °C.
For `COc1ccc(C=C2C(=O)NC(=N)N2C)cc1OC`, the melting point was in the range of 243 to 245 °C.
Regarding `O=C1[C@@H](Oc2ccccc2)[C@@H](c2ccccc2)N1[C@@H](Sc1ccccc1)c1ccccc1`, the melting point was 194 °C.
In turn, `Cc1nc([N+](=O)[O-])cn1CCC#N` registered a melting point of 115 °C.
Regarding `N#CCc1ccc(OC(F)(F)F)cc1`, the melting point was determined as 29 °C.
The result for `O=S(=O)(Cl)c1ccccc1OC(F)(F)F` reads 31 °C.
Take `[O-][P+](c1ccccc1)(c1ccccc1)C1Sc2ccccc2S1`: the melting point worked out at 181 °C.
`CC(C)(C)OC(=O)N[C@H](Cc1ccc(F)cc1)C(=O)O` had a melting point of 130 °C.
Take `Nc1ncnc2c1ncn2C1OC(CO)CC1O` (stereo not given): the melting point was determined as 226 °C.
On to `Cc1ccc(-c2ccc(C=C3N=C(c4ccccc4)OC3=O)o2)cc1`, for which the melting point was in the range of 149 to 150 °C.
`O=C(CCl)N1CCOCC1`: the melting point stood at 37 °C.
For `c1ccc(-c2ccncc2)cc1`, the melting point came to 77.5 °C.
`CCCCCCC(=O)OCCCC`: the melting point is -67.5 °C.
For `O=C(O)c1cccc(N2CCCC2)c1`, the melting point was in the range of 215 to 217 °C.
With `COc1ccc(C(=CCC(=O)O)C(C)(C)C(=O)O)cc1`, the melting point was found to be 137 °C.
For the compound `COc1ccc(C(N)=O)c(Cl)c1OC`, the melting point was in the range of 165 to 168 °C.
The compound `NNC(=O)C1SCCN1S(=O)(=O)c1ccc(Cl)cc1` (stereo not given) returned a melting point of 200 to 201 °C.
The compound `C[C@]12CCC(=O)C[C@@H]1CCC1=C2CC[C@@H]2C(=O)CC[C@H]12` showed a melting point of 137 to 138 °C.
As to `CCC1(C)CC(=O)NC1=O` (stereo not given), the melting point was 65 °C.
For `Cc1[nH]c2cc(C(F)(F)F)ccc2c1C(=O)N1CCCCC1`, the melting point lay within 174 to 175 °C.
For `CCCCCN`, the melting point was -50 °C.
`Oc1c(F)cccc1Cl`: the melting point was determined as 63 °C.
Next, `OCc1ccc2occc2c1`: 35 to 36 °C.
The compound `COC(=O)c1c(C)n[nH]c1C` had a melting point of 83 °C.
For `N#Cc1cc(F)c(F)c(F)c1`, the melting point was 46 °C.
The compound `CC(=O)N1CCc2ccc(N)cc21` registered a melting point of 182 to 185 °C.
Compound `CC(=O)c1cc(-c2ccc(Cl)cc2)oc1C` gave a melting point of 114 to 115 °C.
For `CCOc1ccc2ccc(=O)oc2c1`, the melting point is 90 °C.
The result for `O=C(CCl)Nc1ccc([N+](=O)[O-])cc1` reads 185 to 186 °C; that for `CCC(C)CC(C)(C)C` (stereo not given), -120 °C; that for `O=C1OC(CO)C(O)C1O` (stereo not given), 83 to 85 °C.
Regarding `CC(/C=C(\C)c1ccc(C)cc1)=NNc1ccc([N+](=O)[O-])cc1[N+](=O)[O-]`, the melting point was in the range of 182 to 184 °C.
For `COc1ccc(NC(=S)NN=Cc2c(-c3ccc(Cl)cc3)[nH]c3ccccc23)cc1`, the melting point was 230 to 232 °C.
For `CN1CCC(CN2c3ccccc3Sc3ccccc32)C1` (stereo not given), the melting point was 87 °C.
With `CC12CC1(C)C(=O)N(c1cc(Cl)cc(Cl)c1)C2=O` (stereo not given), the melting point was 166 °C.
`CC12CCC(C1(C)C)C(C/C=C\c1ccccc1)(C1(C/C=C/c3ccccc3)C(=O)C3(C)CCC1C3(C)C)C2=O` (stereo not given) gave a melting point of 188 °C.
With `FC(F)(F)c1ccc(N2CCOCC2)c(Br)c1`, the melting point is 50 to 52 °C.
The compound `CC(C)CCCC(C)C1CC[C@@]2(C)C3=CCC4[C@H](C)[C@@H](O)CC[C@]4(C)C3=CC[C@]12C` (stereo not given in full) showed a melting point of 123 °C.
The compound `O=C(Nc1ccccc1)c1cccnc1` came in with a melting point of 120 °C.
In turn, `O=C(O)C=Cc1ccc(Sc2ccc(Br)cc2)c([N+](=O)[O-])c1` registered a melting point of 232 to 234 °C.
`COc1ccc(F)c(F)c1O`: the melting point stood at 46 °C.
The result for `O=P(N1CC1)(N1CC1)N(N=Cc1ccc(Cl)cc1)c1ccccc1` reads 136 °C; that for `CC(CCC(=O)O)C1CCC2C3C(=O)CC4CC(C(=O)O)CCC4(C)C3CC(C(=O)O)C12C` (stereo not given), 207 to 209 °C; that for `Nc1ccc2c(c1)CCC2=O`, 184 to 186 °C.
`O=C=Nc1cccc(-c2ncccn2)c1` returned a melting point of 45 to 47 °C.
Take `O=[N+]([O-])c1cccc(S(=O)(=O)OCC2CO2)c1` (stereo not given): the melting point lay in the range of 61 to 65 °C.
`COc1ccc(C(=CC(=O)N2CCOCC2)c2ccc(F)cc2)cc1OC`: the melting point was 108 °C.
The compound `CC(c1ccc(OC(F)=C(F)F)cc1)(c1ccc(OC(F)=C(F)F)cc1)c1ccc(OC(F)=C(F)F)cc1` showed a melting point of 31 to 32 °C.
Next, `CC(=O)N1CC(O)CC1C(=O)O` (stereo not given): 132 °C; `CN1C(=O)CC[C@H]1c1cccnc1`: 41 °C; `CCCCCOC(=O)CCC(=O)OCCCCC`: -10.8 °C.
Next, `COc1ccc(N2C(=O)C3ON=C(C(=O)c4ccco4)C3C2=O)cc1` (stereo not given): 137 °C; `NCCCCCCNCCCCCCN`: 33 °C; `COCC(=O)c1ccccc1`: 8 °C.
Take `Cc1cccc(N)c1C(=O)O`: the melting point worked out at 124 °C.
`Cc1cccc(N/N=C2/C(=O)N(c3ccccc3)N=C2C(F)(F)F)c1C` yielded a melting point of 136 °C.
For the compound `Oc1ccc(Cl)cc1Br`, the melting point was 33 °C.
The compound `CCCCCCCCNC` gave a melting point of -11 °C.
Turning to `O=C(Cl)c1cccc(C(=O)Cl)n1`, the melting point was determined as 59 °C.
With `N#C/C(=N\Nc1cccc(C(F)(F)F)c1)c1nc2ccccc2[nH]1`, the melting point came out at 270 °C.
The result for `O=C(Nc1ccccc1[N+](=O)[O-])c1ccccc1` reads 96 °C; that for `O=Nc1ccc2c(O)ccc(N=O)c2c1O`, 250 °C.
The result for `CCCCCCCCOc1ccc(N)cc1` reads 35 to 39 °C; that for `O=C(Cn1c(=O)sc2ccc(Cl)cc21)N1CCN(CCO)CC1`, 160 °C; that for `O=C(Nn1cnnc1)C(F)(F)C(F)(F)C(F)(F)C(F)(F)C(F)(F)C(F)(F)C(F)(F)C(F)(F)F`, 151 °C.
Take `COC(=O)c1ccccc1CC#N`: the melting point worked out at 48 °C.
Next, `C[C@]12C=CC(=O)C=C1C(=O)C[C@@H]1[C@@H]2CC[C@@]2(C)[C@H]1CCC21OCCO1`: 207 °C; `COc1cc(C=C2C(=O)NC(=N)N2C)ccc1O`: 270 to 273 °C; `CC12CCC(=O)C=C1CCC1C2CCC2(C)C(OCc3ccccc3)CCC12` (stereo not given): 198 to 199 °C.
In turn, `O=C(NNc1ccccc1)c1ccccc1` showed a melting point of 168 °C.
